{"source": "patent US20220160669A1", "about": "“PARENTERAL NUTRITION FORMULATION” (BAXTER INTERNATIONAL INC., priority 2020, published 2022)", "assay_type_in_all_cases": "in vivo, pig", "key": {"[1]": {"system": "Neonatal Yorkshire/Landrace cross bred piglets", "experiment": "Cognitive assessment by eyeblink conditioning", "parameters": "key: + denotes a positive effect (compared to standard PN); ++ a very positive effect; − denotes no difference", "conditions": "10 mmol/L in PN, compared to standard PN", "description": "Eyeblink conditioning is an established Pavlovian method to assess the cerebellum and associated brainstem circuitry with hippocampus involvement that are essential for learning and memory. The eyeblink conditioning procedure took place in a sound-attenuating chamber. A fan was inside the chamber and ran throughout the experiment for ambient noise (70 dB). A speaker mounted to the wall of the chamber delivered the tone conditioned stimulus (CS). A small plastic air puff delivery nozzle (San Diego Instruments, San Diego, Calif.) was secured at approximately 2 cm from the piglet's left eye to deliver the unconditioned stimulus (US). After adaptation to the conditioning apparatus on study day 3, a total of five CS-US conditioning sessions occurred on study days 4-8 following. Each conditioning session consisted of 90 CS-US paired trials and 10 CS alone trials for a total of 100 trials/session. Every tenth trial was a CS alone trial. The CS-US paired trials included: a 500 ms auditory CS (1 kHz, 85 dB tone), a 400 ms interstimulus interval (ISI), followed by a 100 ms corneal airpuff US (10 psi). Both the CS and US were co-terminated at the exact same time. The CS alone trials consisted of a 500 ms auditory CS (1 kHz, 85 dB tone) only. There were random inter-trial intervals of 20 seconds throughout each session. Each conditioning session lasted no longer than 35 minutes. The San Diego Instruments eyeblink software was used to record conditioning session moment-to-moment infrared-reflectance data."}, "[2]": {"system": "Neonatal Yorkshire/Landrace cross bred piglets", "experiment": "Intestinal histomorphology: villus height and crypt depth", "parameters": "key to Villus (total) / Crypt (total): + denotes a positive effect (compared to standard PN); ++ a very positive effect; − denotes no difference; key to Total villus height / Total crypt depth: +++ indicate P < 0.01; ++ indicates P < 0.05; + indicates positive trends; = denotes no significant P value; − denotes negative trends", "experimental": "(§1) Neonatal Yorkshire/Landrace cross bred piglets (n=72; six at a time from the same litter, repeating 12 times) were obtained from Oak Hill Genetics (Ewing, Ill.) after 48-hour sow reared for colostrum consumption and iron supplementation.\nFormalin-fixed intestinal samples were embedded in paraffin, sliced to approximately 5-μm thickness with a microtome and stained with hematoxylin and eosin (FIG. 6). Villus height, midvillus width, and crypt depth were measured by using a Nikon Optiphot-2 microscope (Nikon, Melville, N.Y.) and ImagePro Express software (Version 4.5; Media Cybernetics, Inc, Silver Spring, Md.) in 8 to 10 well-oriented villi and crypts. Villus surface area (villus height×midvillus width) was also calculated. In addition, intestinal segment circumference was measured to estimate intestinal surface area. The results are provided in FIGS. 7 through 12 (see there for details). […] The Table summarizes the average difference (in % of each Intervention Group (A, B, C, D) versus the PN Group) of the villus height and the crypt depth in the different sections of the gut, i.e. duodenum, jejunum, ileum and colon. The Intervention Groups show an improved villus height compared to the s-PN Group."}, "[3]": {"system": "Anti-inflammatory cytokines", "experiment": "Anti-inflammatory cytokines, summary (site not stated)", "parameters": "key: + denotes a positive effect (compared to standard PN); ++ a very positive effect; − denotes no difference", "conditions": "10 mmol/L in PN, compared to standard PN", "description": "as §1\n(§2) The influence of the respective supplements on inflammation was investigated by determining Il-6, Il-1beta, TNF-alpha and Il-10 serum levels in the intervention groups compared to EN and PN according to Milo et al., Effects of Short-Chain Fatty Acid-Supplemented Total Parenteral Nutrition on Intestinal Pro-Inflammatory Cytokine Abundance. Digestive Diseases and Sciences 2002; 47:2049-2055. Jejunal and ileal samples were homogenized in double-distilled water, and the Bradford protein assay (Biorad, Hercules, Calif., USA) was performed on homogenate and plasma samples. Protein (30 μg) from each sample was denatured by boiling, and proteins were separated by size using 12.5% sodium dodecyl sulfate polyacrylamide gel electrophoresis. Separated proteins were transferred to polyvinylidene difluoride membranes (Biorad) using a semidry transfer apparatus (Biorad). Western blot analysis for TNF-alpha, IL-1beta, Il-10 and IL-6 was performed using porcine-specific polyclonal antibodies (Endogen, Woburn, Mass., USA). A mouse anti-pig monoclonal TNF-alpha antibody was used to detect TNF-alpha ([…]). Rabbit anti-pig polyclonal antibodies specific for IL-1beta and IL-6 were used to detect IL-1beta (17,500 kDa), Il-10 (18,600 kDa) and IL-6 (26,000 kDa). Membranes were developed using the Opti-4CN kit (Biorad) and photographed using the FOTO/Analyst Image Analysis System (Fotodyne, Inc., Hartland, Wis., USA). Densitometry of TNF-alpha, IL-1beta, IL-6, and Il-10 was performed using Collage Image Analysis Software 4.0 (Fotodyne, Inc.). Results are shown in FIG. 15 (Il-6), FIG. 16 (Illbeta), FIG. 17 (TNF-alpha) and FIG. 18 (Il-10)."}, "[4]": {"system": "Pro-inflammatory cytokines", "experiment": "Pro-inflammatory cytokines, summary (site not stated)", "parameters": "key: + denotes a positive effect (compared to standard PN); ++ a very positive effect; − denotes no difference", "conditions": "10 mmol/L in PN, compared to standard PN", "description": "as §1, §2"}, "Il-10": {"system": "Il-10", "experiment": "Serum cytokine quantification, Il-10", "conditions": "10 mmol/L TPN (Groups A, C, D)", "description": "as §1, §2"}, "[5]": {"system": "Neonatal Yorkshire/Landrace cross bred piglets", "experiment": "Duodenal mucosal resistance (Ussing chamber), PN-fed neonatal piglets", "parameters": "key: + denotes a positive effect (compared to standard PN); ++ a very positive effect; − denotes no difference", "conditions": "10 mmol/L in PN, 10 days, compared to standard PN"}, "[6]": {"system": "anti-inflammatory cytokines I1-8, I1-10", "experiment": "Ileal cytokine concentration, anti-inflammatory", "parameters": "key: +++ indicate P < 0.01; ++ indicates P < 0.05; + indicates positive trends; = denotes no significant P value; − denotes negative trends", "conditions": "10 mmol/L, compared to standard PN (s-PN)", "description": "as §1, §2"}, "[7]": {"conditions": "10 mmol/L TPN (Groups A, C, D), sum over sections"}, "[8]": {"conditions": "10 mmol/L in PN, all sections, compared to standard PN"}, "[9]": {"conditions": "10 mmol/L, compared to standard PN (s-PN)"}}}
{"substance": "L-arginine, butanoate (3:4) [Arginine butyrate]", "values": [{"measurement": "Cognitive", "setting": "[1]", "value": "−"}, {"measurement": "average duodenal crypt length (crypt depth, FIG. 8)", "setting": "[2]; 10 mmol/L TPN", "value": "slightly better even than Groups A and D"}, {"measurement": "average duodenal villous length (FIG. 7)", "setting": "[2]; 10 mmol/L TPN", "value": "only slightly below the mean values determined for Groups B and D"}, {"measurement": "average ileal crypt depth (FIG. 11)", "setting": "[2]; 10 mmol/L TPN", "value": "close behind"}, {"measurement": "average jejunal crypt depth (FIG. 10)", "setting": "[2]; 10 mmol/L TPN", "value": "gave the best results"}, {"measurement": "average jejunal villous length (FIG. 9)", "setting": "[2]; 10 mmol/L TPN", "value": "gave the best results"}, {"measurement": "improvement of the gut architecture in total", "setting": "[2]; 10 mmol/L TPN (Group C), versus other groups", "value": "most prominent improvement of the gut architecture"}, {"measurement": "% Δ from PN, Colon C (crypt depth)", "setting": "[2]; 10 mmol/L TPN (Groups A, C, D)", "value": "+22%"}, {"measurement": "% Δ from PN, Duodenum C (crypt depth)", "setting": "[2]; 10 mmol/L TPN (Groups A, C, D)", "value": "+15%"}, {"measurement": "% Δ from PN, Duodenum V (villus height)", "setting": "[2]; 10 mmol/L TPN (Groups A, C, D)", "value": "+35%"}, {"measurement": "% Δ from PN, Ileum C (crypt depth)", "setting": "[2]; 10 mmol/L TPN (Groups A, C, D)", "value": "+7%"}, {"measurement": "% Δ from PN, Ileum V (villus height)", "setting": "[2]; 10 mmol/L TPN (Groups A, C, D)", "value": "+16%"}, {"measurement": "% Δ from PN, Jejunum C (crypt depth)", "setting": "[2]; 10 mmol/L TPN (Groups A, C, D)", "value": "+3%"}, {"measurement": "% Δ from PN, Jejunum V (villus height)", "setting": "[2]; 10 mmol/L TPN (Groups A, C, D)", "value": "+26%"}, {"measurement": "% Δ from PN, Total Total (crypt + villus)", "setting": "[2]; 10 mmol/L TPN (Groups A, C, D)", "value": "+124%"}, {"measurement": "% Δ from PN, Total C (crypt depth)", "setting": "[2]; [7]", "value": "+47%"}, {"measurement": "% Δ from PN, Total V (villus height)", "setting": "[2]; [7]", "value": "+77%"}, {"measurement": "Crypt (total)", "setting": "[2]; [8]", "value": "+"}, {"measurement": "Villus (total)", "setting": "[2]; [8]", "value": "+"}, {"measurement": "Total crypt depth", "setting": "[2]; [9]", "value": "+"}, {"measurement": "Total villus height", "setting": "[2]; [9]", "value": "+"}, {"measurement": "gut architecture, systemic and local inflammation and systemic and local immunity (overall)", "setting": "[2]; versus the Group which obtained standard PN", "value": "especially beneficial"}, {"measurement": "Anti-inflammatory cytokines", "setting": "[3]", "value": "++"}, {"measurement": "Pro-inflammatory cytokines", "setting": "[4]", "value": "++"}, {"measurement": "serum levels of Il-10 (FIG. 18)", "setting": "Il-10", "value": "lower than in the standard PN Group P"}, {"measurement": "Tight junctions", "setting": "[5]", "value": "++"}, {"measurement": "Ileal Cytokine Concentration (more anti-inflammatory cytokines I1-8, I1-10)", "setting": "[6]", "value": "+^4"}]}
